In PMC11130353, “Using host-mimicking conditions and a murine cutaneous abscess model to identify synergistic antibiotic combinations effective against Pseudomonas aeruginosa” (Frontiers in Cellular and Infection Microbiology, 2024):
In brackets after ≈: the same amount, converted by molar mass. Read-outs that look alike come from different tables or passages of the source. Peptide text beside a SMILES is read from it.

Assays:
P. aeruginosa LESB58 [1] = assay: microbe, parasite or virus in culture; format: cell-based, Pseudomonas aeruginosa; settings: for Fold change TCM vs MHB (MIC): MIC in TCM vs MIC in MHB; for MIC: Pseudomonas aeruginosa; for MIC in TCM: TCM (DMEM + 1% glucose + 5% FBS)
Protocol: (§1) For susceptibility testing under standard conditions, bacteria were cultured in Muller Hinton Broth MHB (Fort Richards Laboratories). […] Further susceptibility testing was also conducted in MHB supplemented with FBS (5% v/v) and DMEM supplemented with glucose (1% w/v) and MHB (10% v/v).
The minimum inhibitory concentration (MIC) of each antibiotic was determined using the broth microdilution method in 96-well plates. […] Briefly, antibiotics were two-fold serially diluted in MHB or TCM prior to adding 1 × 10^6 CFU mL^-1 bacteria. […] The MIC was recorded as the lowest antibiotic concentration with no visible growth and the median value of at least three biological replicates reported.

P. aeruginosa PAO1 = assay: Minimum inhibitory concentration, broth microdilution; format: cell-based, Pseudomonas aeruginosa; settings: for Fold change TCM vs MHB (MIC): MIC in TCM vs MIC in MHB; for MIC: Pseudomonas aeruginosa, PAO1
Protocol: as §1
The minimum inhibitory concentration (MIC) of each antibiotic was determined using the broth microdilution method in 96-well plates. […] Briefly, antibiotics were two-fold serially diluted in MHB or TCM prior to adding 1 × 10^6 CFU mL^-1 bacteria. Plates were incubated at 37°C for 22-24 hours. The MIC was recorded as the lowest antibiotic concentration with no visible growth and the median value of at least three biological replicates reported.

P. aeruginosa LESB58-lux = assay: In vitro synergy, checkerboard assay (luminescence readout); format: cell-based, Pseudomonas aeruginosa; settings: LESB58-lux; for FICI, drug combined with CAZ / FICI, drug combined with CZA: FICI <= 0.5 indicates synergy
Protocol: (§2) For susceptibility testing under standard conditions, bacteria were cultured in Muller Hinton Broth MHB (Fort Richards Laboratories). Host mimicking conditions in vitro were simulated using tissue culture medium (TCM) consisting of Dulbecco’s modified Eagle medium (DMEM; Gibco #11965) supplemented with FBS (Moregate Biotech) (5% v/v) and glucose (1% w/v). Further susceptibility testing was also conducted in MHB supplemented with FBS (5% v/v) and DMEM supplemented with glucose (1% w/v) and MHB (10% v/v).
(§3) The P. aeruginosa LESB58.lux strain was used for in vitro synergy experiments with azithromycin in MHB and all antibiotic combinations in TCM to determine bacterial growth (as visual inspection and absorbance measurements were unreliable). Synergy was determined using the checkerboard method ([Berenbaum, 1978]; [Pletzer and Hancock, 2018]) in at least triplicate. Each antibiotic was two-fold serially diluted in sterile water before transferring to a 96-well plate containing 1 × 10^6 CFU mL^-1 bacteria in MHB or TCM. Plates were incubated at 37°C for 22-24 hours. The MIC alone or in combination was recorded as the lowest antibiotic concentration with no visible growth. For experiments using the LESB58.lux strain no visible growth was defined as an at least 95% reduction compared to the no antibiotic growth control in luminescence detected using a ClarioStar plate reader. The fractional inhibitory concentration index (FICI) was calculated as [(MICA in combination)/MICA] + [(MICB in combination)/MICB]. FICI values of 0.5 or below indicated synergy, while values above 0.5 up to and including 1 were taken to indicate additivity. FICI values above 1 indicate indifference or antagonism ([Odds, 2003]).

[2] = Protocol: Mice used in this study were female Swiss Webster aged approximately 6-7 weeks and sourced from the University of Otago Biomedical Research Facility. […] Briefly, the fur on the back of each mouse was removed by shaving and chemical depilation. Antibiotics were tested for skin toxicity by injecting 50 μL of antibiotic suspension subcutaneously into naïve mice, and subsequent inspection of the skin for inflammation on the next day. P. aeruginosa LESB58 was grown to mid-log phase in dYT broth, washed twice in sterile PBS (Gibco, pH 7.4), and resuspended in PBS to ~1 x 10^8 CFU per 50 μL inoculum. The bacterial suspension (50 μL) was injected subcutaneously into the right side of the dorsum, followed one hour later by 50 μL of antibiotic treatment injected directly into the infected area. […] Combination treatments were administered as a single 50 μL injection containing both antibiotics. The concentration of each antibiotic in the combination was the same as when it was used alone. Progression of the infection was monitored daily, and abscess dimensions were measured on day three using a calliper. On day three, abscess tissue and pus were excised, homogenized in sterile PBS using SPEX SamplePrep 1600 MiniG for five minutes and bacterial CFU counts determined by serial dilution.
P. aeruginosa LESB58 [3] = assay: Murine high density subcutaneous skin abscess model; format: in vivo, Pseudomonas aeruginosa; settings: for CFU per abscess, Fold change / Area of dermoncecrosis, % reduction: compared to the vehicle control; for CFU per abscess, Fold change / Area of dermoncecrosis, % reduction / CFU per abscess, Geometric mean / Area of dermoncecrosis, Mean: day 3; for Area of dermoncecrosis, Mean: female Swiss Webster mice
Protocol: Mice used in this study were female Swiss Webster aged approximately 6-7 weeks and sourced from the University of Otago Biomedical Research Facility. […] The subcutaneous abscess infection model was performed as previously described ([Pletzer et al., 2017]) with a higher inoculum. Briefly, the fur on the back of each mouse was removed by shaving and chemical depilation. Antibiotics were tested for skin toxicity by injecting 50 μL of antibiotic suspension subcutaneously into naïve mice, and subsequent inspection of the skin for inflammation on the next day. P. aeruginosa LESB58 was grown to mid-log phase in dYT broth, washed twice in sterile PBS (Gibco, pH 7.4), and resuspended in PBS to ~1 x 10^8 CFU per 50 μL inoculum. The bacterial suspension (50 μL) was injected subcutaneously into the right side of the dorsum, followed one hour later by 50 μL of antibiotic treatment injected directly into the infected area. […] Combination treatments were administered as a single 50 μL injection containing both antibiotics. The concentration of each antibiotic in the combination was the same as when it was used alone. Progression of the infection was monitored daily, and abscess dimensions were measured on day three using a calliper. On day three, abscess tissue and pus were excised, homogenized in sterile PBS using SPEX SamplePrep 1600 MiniG for five minutes and bacterial CFU counts determined by serial dilution. In this model, synergy was defined as being a significant difference between the combination treated group and the amalgamated group of single drug treated animals ([Fantin and Carbon, 1992]; [Pletzer et al., 2018]).
Statistical analysis was performed using GraphPad Prism 9.5.1. Bacterial CFU and abscess size data from in vivo experiments was analysed by Kruskal-Wallace test with Dunn’s correction for multiple comparisons. The data was considered significant when p-values were below 0.05 or 0.01 as indicated.

P. aeruginosa LESB58 [4] = assay: In vitro synergy, checkerboard assay; format: cell-based, Pseudomonas aeruginosa; settings: MHB; for FICI, drug combined with CAZ / FICI, drug combined with CZA: FICI <= 0.5 indicates synergy
Protocol: as §2, §3

[5] = LESB58, read-out: MIC in MHB, MHB, 20-24 h
[6] = LESB58, read-out: MIC in TCM, TCM (DMEM + 1% glucose + 5% FBS), 20-24 h
[7] = 50 μL injected subcutaneously, skin inspected next day
[8] = female, Swiss Webster, mouse, in vivo, sc, 1 day
[9] = Azithromycin group, CAZ or CZA 50 mg/mL, AZM 6.25 mg/mL
[10] = Colistin, tigecycline and tobramycin groups (shared vehicle, CAZ and CZA mice), 50 μL s.c. 1 h after infection, CAZ or CZA 50, CST 1.25, TGC 2.5, TOB 2 mg/mL, vehicle 0.9% saline
[11] = Colistin, tigecycline and tobramycin groups

Row | SMILES | Fold change TCM vs MHB (MIC) (P. aeruginosa LESB58 [1]) | MIC (P. aeruginosa LESB58 [1]; [5]) [µg/mL] | MIC (P. aeruginosa LESB58 [1]; [6]) [µg/mL] | Fold change TCM vs MHB (MIC) (P. aeruginosa PAO1) | MIC (P. aeruginosa PAO1; read-out: MIC in MHB) [µg/mL] | MIC (P. aeruginosa PAO1; read-out: MIC in TCM) [µg/mL] | Fold decrease in CAZ MIC, drug combined with CAZ (P. aeruginosa LESB58-lux; TCM) | Fold decrease in CZA MIC, drug combined with CZA (P. aeruginosa LESB58-lux; TCM) | Fold decrease in other MIC, drug combined with CAZ (P. aeruginosa LESB58-lux; TCM) | Fold decrease in other MIC, drug combined with CZA (P. aeruginosa LESB58-lux; TCM) | FICI, drug combined with CAZ (P. aeruginosa LESB58-lux; TCM) | FICI, drug combined with CZA (P. aeruginosa LESB58-lux; TCM) | Highest tolerated dose tested [2, 7] [mg/mL] | Toxic (visible skin irritation, inflammation, blood vessels, swelling) [2, 8] [mg/mL] | MIC in TCM (P. aeruginosa LESB58 [1]; 20-24 h) | Fold decrease in CAZ MIC, drug combined with CAZ (P. aeruginosa LESB58 [4]) | Fold decrease in CZA MIC, drug combined with CZA (P. aeruginosa LESB58 [4]) | Fold decrease in other MIC, drug combined with CAZ (P. aeruginosa LESB58 [4]) | Fold decrease in other MIC, drug combined with CZA (P. aeruginosa LESB58 [4]) | FICI, drug combined with CAZ (P. aeruginosa LESB58 [4]) | other results
1 | CC[C@H]1OC(=O)[C@H](C)[C@@H](O[C@H]2C[C@@](C)(OC)[C@@H](O)[C@H](C)O2)[C@H](C)[C@@H](O[C@@H]2O[C@H](C)C[C@H](N(C)C)[C@H]2O)[C@](C)(O)C[C@@H](C)CN(C)[C@H](C)[C@@H](O)[C@]1(C)O [AZM, azithromycin] | -100 | 62.5 (≈ 83.4 µM) | 0.625 | >-300 | 250 (≈ 334 µM) | < 0.78 | 8 | 2 | 2 | 2 | 0.625 | 1 | 25 | 50 |  |  |  |  |  |  | Fold increase of efficacy in TCM compared to MHB (P. aeruginosa LESB58 [1]; host mimicking TCM vs MHB): 100; Fold decrease in CAZ MIC, drug combined with CAZ (P. aeruginosa LESB58-lux; MHB): 4; Fold decrease in CZA MIC, drug combined with CZA (P. aeruginosa LESB58-lux; MHB): 4; Fold decrease in other MIC, drug combined with CAZ (P. aeruginosa LESB58-lux; MHB): 4; Fold decrease in other MIC, drug combined with CZA (P. aeruginosa LESB58-lux; MHB): 2; FICI, drug combined with CAZ (P. aeruginosa LESB58-lux; MHB): 0.5; FICI, drug combined with CZA (P. aeruginosa LESB58-lux; MHB): 0.75; FICI, drug combined with CZA (P. aeruginosa LESB58-lux; MHB, listed as azithromycin): did not act synergistically; Fold reduction of bacterial load (CFU) relative to vehicle (P. aeruginosa LESB58 [3]; Azithromycin experiments): ~ 42; CFU per abscess, Fold change (P. aeruginosa LESB58 [3]; Azithromycin group): -42.1; Area of dermoncecrosis, % reduction (P. aeruginosa LESB58 [3]; [9]): 36.4%; Area of dermoncecrosis, % reduction (P. aeruginosa LESB58 [3]; Azithromycin group, CAZ or CZA 50 mg/mL, AZM 6.25 mg/mL, listed as azithromycin): 36%; CFU per abscess, Geometric mean (P. aeruginosa LESB58 [3]; [9]): 8.5 × 10^6 CFU per abscess; Area of dermoncecrosis, Mean (P. aeruginosa LESB58 [3]; Azithromycin group, 50 μL s.c. into infected area 1 h after infection, CAZ or CZA 50 mg/mL, AZM 6.25 mg/mL, vehicle citric acid in saline): 64.5 mm^2
2 | CN(C)c1cc(NC(=O)CNC(C)(C)C)c(O)c2c1C[C@H]1C[C@H]3[C@H](N(C)C)C(O)=C(C(N)=O)C(=O)[C@@]3(O)C(O)=C1C2=O [TGC, tigecycline] | >80 | 6.25 (≈ 10.7 µM) | > 500 | >40 | 12.5 (≈ 21.3 µM) | > 500 |  |  |  |  |  |  | 12 | 25 | entirely lost its efficacy | 4 | 8 | 8 | 8 | 0.38 | FICI, drug combined with CZA (P. aeruginosa LESB58 [4]): 0.25; FICI, drug combined with CAZ (P. aeruginosa LESB58 [4]; listed as tigecycline): < 0.4; FICI, drug combined with CZA (P. aeruginosa LESB58 [4]; listed as tigecycline): < 0.4; Area of dermoncecrosis, Mean (P. aeruginosa LESB58 [3]; [10]): 86.7 mm^2; Area of dermoncecrosis, % reduction (P. aeruginosa LESB58 [3]; [11]): 7.7%; CFU per abscess, Fold change (P. aeruginosa LESB58 [3]; [11]): -2.4; CFU per abscess, Geometric mean (P. aeruginosa LESB58 [3]; [11]): 1.0 × 10^8 CFU per abscess
3 | CC[C@H](C)CCCCC(=O)N[C@@H](CCN)C(=O)N[C@H](C(=O)N[C@@H](CCN)C(=O)N[C@H]1CCNC(=O)[C@H]([C@@H](C)O)NC(=O)[C@H](CCN)NC(=O)[C@H](CCN)NC(=O)[C@H](CC(C)C)NC(=O)[C@@H](CC(C)C)NC(=O)[C@H](CCN)NC1=O)[C@@H](C)O [CST, colistin] (HELM PEPTIDE1{[CC[C@H](C)CCCCC(=O)[*:2]].[Dab].T.[Dab].[Dab].[Dab].[dL].L.[Dab].[Dab].T}$PEPTIDE1,PEPTIDE1,5:R3-11:R2$$$V2.0) |  |  |  | 10 |  |  | 8 | 4 | 4 | 4 | 0.38 | 0.5 | 2 |  | 12.5 µg/mL | 4 | 4 | 8 | 8 | 0.38 | MIC in MHB (P. aeruginosa LESB58 [1]; MHB, 20-24 h): 3.13 µg/mL (≈ 2.68 µM); MIC in MHB (P. aeruginosa PAO1; MHB): 2.5 µg/mL (≈ 2.14 µM); MIC in TCM (P. aeruginosa PAO1; TCM): 25 µg/mL (≈ 21.4 µM); FICI, drug combined with CAZ (P. aeruginosa LESB58-lux; TCM, listed as colistin): synergised; FICI, drug combined with CZA (P. aeruginosa LESB58-lux; TCM, listed as colistin): synergised; Toxic (visible skin irritation, inflammation, blood vessels, swelling) [2, 7]: 5 mg/mL; Area of dermoncecrosis, Mean (P. aeruginosa LESB58 [3]; [10]): 38.6 mm^2; Area of dermoncecrosis, % reduction (P. aeruginosa LESB58 [3]; [11]): 58.9%; CFU per abscess, Fold change (P. aeruginosa LESB58 [3]; [11]): -107.4; Area of dermoncecrosis, % reduction (P. aeruginosa LESB58 [3]; Colistin, tigecycline and tobramycin groups, listed as colistin): 59%; CFU per abscess, Geometric mean (P. aeruginosa LESB58 [3]; [11]): 2.3 × 10^6 CFU per abscess; Fold reduction of bacterial load (CFU) relative to vehicle (P. aeruginosa LESB58 [3]; Colistin, tigecycline, tobramycin experiments): ~107
